Data on one molecule can be found in US9402839B2, “Selective targeting agents for mitochondria” (University of Pittsburgh—Of the Commonwealth System of …, priority 2006, dated 2016).

One data set has as its system caspases 3 and 7. The experiment in a line: Caspases 3 and 7 activity assay in rat gut mucosa homogenate after hemorrhagic shock. It counts as in vivo. To be noted: intraluminal 10 μM versus vehicle. The method, then:
After 2 h of shock, the animals were euthanized with an intracardiac KCl bolus injection. The ileum was rapidly excised from the ileocecal valve to the most proximal gut segment. The tips of each segment were discarded. In order to assay caspases 3 and 7 activity and phospholipids peroxidation, mucosa samples were collected from gut segments immediately after hemorrhage and stored at −80° C. For permeability measurements, each segment was converted into an everted gut sac, as previously described by Wattanasirichaigoon et al., see Wattanasirichaigoon, S. et al., Effect of mesenteric ischemia and reperfusion or hemorrhagic shock on intestinal mucosal permeability and ATP content in rats, SHOCK, 12:127-133 (1999).
Caspases 3 and 7 activity assay. Caspases 3 and 7 activity was measured using a commercially available assay kit, CASPASE GLO™ 3/7 assay kit (PROMEGA, Madison, Wis.). […] At the end of incubation period, the luminescence of each sample was measured using a plate reading chemiluminometer (ML1000, DYNATECH LABORATORIES, Horsham, Pa.). Activity of caspases 3 and 7 was expressed as luminescence intensity (arbitrary units per mg protein). Protein concentrations were determined using the BIORAD assay (BIO-RAD LABORATORIES, Inc., Hercules, Calif.). […]

Data set [1] concerns MECs. The experiment in a line: Determination of intracellular superoxide radicals (DHE oxidation, flow cytometry) in ActD-treated MECs. Type of data set: cell-based, mouse. To be noted: 10 μM pretreatment, ActD 100 ng/mL; nearly two-fold ActD-induced increase. As for the experimental part: Determination of intracellular superoxide radicals Oxidation-dependent fluorogenic dye, dihydroethidium (“DHE”, Molecular Probes) was used to evaluate intracellular production of superoxide radicals. DHE is cell permeable and, in the presence of superoxide, is oxidized to fluorescent ethidium which intercalates into DNA. The fluorescence of ethidium was measured using a FACscan (BECTON-DICKINSON, Rutherford, N.J.) flow cytometer, equipped with a 488-nm argon ion laser and supplied with the Cell Quest software. Mean fluorescence intensity from 10,000 cells were acquired using a 585-nm bandpass filter (FL-2 channel).
(Flow cytometry measures light scatter and fluorescence of single cells or particles in a stream.)

Data set [2] has as its system Caco-2BBe human enterocyte-like monolayers. The experiment in a line: Permeability of Caco-2 monolayers exposed to menadione (FD4 clearance). Type of data set: cell-based. To be noted: 10 μM apical, menadione 50 μM, 6 hours. The method, then: Cells. Caco-2BBe human enterocyte-like epithelial cells were obtained from the AMERICAN TYPE CULTURE COLLECTION (Manassas, Va.). Cells were routinely maintained at 37° C. in under a humidified atmosphere containing 8% CO2 in air. The culture medium was DMEM supplemented with 10% FBS, non-essential amino acids supplement (SIGMA-ALDRICH catalogue #M7145), sodium pyruvate (2 mM), streptomycin (0.1 mg/ml), penicillin G (100 U/ml) and human transferrin (0.01 mg/ml). The culture medium was changed 3 times per week.
Measurement of permeability of Caco-2 monolayers. Caco-2BBe cells were plated at a density of 5×10^4 cells/well on permeable filters (0.4 μm pore size) in 12-well bicameral chambers (TRANSWELL, COSTAR, Corning, N.Y.).
Briefly, the medium on the basolateral side was replaced with control medium or medium containing menadione (50 μM final). Medium containing FD4 (25 mg/ml) was applied to the apical chamber. In some cases, one of the gramicidin S-based compounds, XJB-5-131, also was added to the apical side at final concentrations of 0.1, 1, 10 or 100 μM. […] Permeability of the monolayers was expressed as a clearance (pL·h^−1·cm^−2), see Han, X. et al., Proinflammatory cytokines cause NO dependent and independent changes in expression and localization of tight junction proteins in intestinal epithelial cells, SHOCK 19:229-237 (2003). […]
(In general: Caco-2 monolayers are a common model of the intestinal barrier.)

For data set [3], the system named is MECs. The experiment in a line: ActD-induced apoptosis in MECs (PS externalization, caspase-3 activation, DNA fragmentation). It counts as cell-based, mouse. The source says:
Cells that annexin V-positive and PI-negative were considered apoptotic.

In the case of `CC(C)C[C@@H](/C=C/[C@H](Cc1ccccc1)C(=O)N1CCC[C@H]1C(=O)N[C@H](C(=O)N[C@@H](CCCNC(=O)OCc1ccccc1)C(=O)NC1CC(C)(C)N([O])C(C)(C)C1)C(C)C)NC(=O)OC(C)(C)C` [XJB-5-131], the “caspase 3 and 7 activity in ileal mucosa after hemorrhagic shock” value in the data set with caspases 3 and 7 is reported as “significantly decreased”. For the same molecule, the “intracellular superoxide generation in MECs” value with MECs [1] was “completely inhibited”. Further, the “protection against menadione-induced hyperpermeability” value in data set [2] was “significant protection”. Also, in the data set with MECs [3] (10 μM, ActD 100 ng/mL), the DNA fragmentation result was “prevented DNA fragmentation”, the “PS externalization (annexin V-positive cells)” value is “reduced the number of annexin V-positive cells” and the caspase-3 activation result was “prevented caspase-3 activation”. In addition, in the data set with MECs [3] (concentrations in excess of 10 μM), the “anti-apoptotic protection / cytotoxicity at higher concentrations” value was “either less protective or exhibited cytotoxicity”.
